# Results reported in ChEMBL document CHEMBL5143673, “The evaluation of N-propargylamine-2-aminotetralin as an inhibitor of monoamine oxidase” (Bioorg Med Chem Lett, 2022).
# Experiments:
# [1] = biological target: T1, Amine oxidase [flavin-containing] A (Rattus norvegicus, UniProt P21396); test: Inhibition of rat brain MAOA using kynuramine substrate by fluorescence spectrophotometry; type: toxicity
# T1 sequence (P21396 whole entry): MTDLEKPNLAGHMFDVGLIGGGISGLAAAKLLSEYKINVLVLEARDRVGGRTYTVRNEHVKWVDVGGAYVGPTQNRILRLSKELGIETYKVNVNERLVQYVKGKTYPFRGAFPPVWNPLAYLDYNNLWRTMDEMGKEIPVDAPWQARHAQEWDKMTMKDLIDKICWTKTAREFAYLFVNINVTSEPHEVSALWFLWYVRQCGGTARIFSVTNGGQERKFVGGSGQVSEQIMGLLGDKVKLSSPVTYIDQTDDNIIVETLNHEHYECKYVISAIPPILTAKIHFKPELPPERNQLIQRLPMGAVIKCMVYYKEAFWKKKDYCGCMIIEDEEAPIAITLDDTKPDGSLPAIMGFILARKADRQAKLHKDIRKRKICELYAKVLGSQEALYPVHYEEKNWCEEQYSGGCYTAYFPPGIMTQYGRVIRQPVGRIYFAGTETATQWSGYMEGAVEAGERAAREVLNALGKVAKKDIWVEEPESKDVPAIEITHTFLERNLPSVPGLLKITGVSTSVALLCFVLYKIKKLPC
# [2] = biological target: T2, Amine oxidase [flavin-containing] B (Rattus norvegicus, UniProt P19643); test: Inhibition of rat brain MAOB using kynuramine substrate by fluorescence spectrophotometry
# T2 sequence (P19643 whole entry): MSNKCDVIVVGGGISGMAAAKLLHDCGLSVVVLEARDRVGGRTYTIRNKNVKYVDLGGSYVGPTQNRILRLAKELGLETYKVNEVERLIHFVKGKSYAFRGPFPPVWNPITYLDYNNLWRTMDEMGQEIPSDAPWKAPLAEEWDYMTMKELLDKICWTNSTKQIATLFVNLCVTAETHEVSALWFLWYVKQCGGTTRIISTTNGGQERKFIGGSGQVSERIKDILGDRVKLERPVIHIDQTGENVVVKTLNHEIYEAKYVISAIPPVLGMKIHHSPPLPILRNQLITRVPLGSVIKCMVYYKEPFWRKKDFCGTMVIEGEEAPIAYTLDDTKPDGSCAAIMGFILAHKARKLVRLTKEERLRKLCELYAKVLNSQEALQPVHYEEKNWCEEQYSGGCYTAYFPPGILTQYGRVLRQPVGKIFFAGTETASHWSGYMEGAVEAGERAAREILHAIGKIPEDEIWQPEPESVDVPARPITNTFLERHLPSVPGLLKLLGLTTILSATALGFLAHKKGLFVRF
# Rattus norvegicus = species on record: Rattus norvegicus; test: Selectivity index, ratio of IC50 for inhibition of rat brain MAOA to IC50 for rat brain MAOB
# MAO-A [3] = biological target: T3, MAO-A (Homo sapiens, UniProt P21397); test: Inhibition of human recombinant MAOA assessed as enzyme activity recovery level using kynuramine substrate incubated for 15 mins followed by 24 hrs dialysis by fluorescence spectrophotometry; type: toxicity; set-up: scale not given: the % may be the effect or the level left; details: probe kynuramine, read-out: Activity
# T3 sequence (P21397 whole entry): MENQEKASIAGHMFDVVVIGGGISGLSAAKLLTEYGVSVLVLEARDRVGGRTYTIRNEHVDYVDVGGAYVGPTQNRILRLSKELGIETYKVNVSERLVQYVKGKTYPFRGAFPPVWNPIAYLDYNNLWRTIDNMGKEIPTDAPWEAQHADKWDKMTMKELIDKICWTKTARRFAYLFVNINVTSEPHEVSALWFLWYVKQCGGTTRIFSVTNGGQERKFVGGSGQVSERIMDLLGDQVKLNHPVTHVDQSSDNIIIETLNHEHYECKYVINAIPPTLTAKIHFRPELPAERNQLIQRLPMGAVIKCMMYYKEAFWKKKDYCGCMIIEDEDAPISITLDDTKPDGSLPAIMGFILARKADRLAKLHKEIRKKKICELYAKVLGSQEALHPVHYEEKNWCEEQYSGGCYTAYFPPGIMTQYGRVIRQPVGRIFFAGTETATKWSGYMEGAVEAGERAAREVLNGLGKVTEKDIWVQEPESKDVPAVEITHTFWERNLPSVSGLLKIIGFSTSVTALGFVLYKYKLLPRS
# [4] = biological target: T4, Amine oxidase [flavin-containing] B (Homo sapiens, UniProt P27338); test: Inhibition of human recombinant MAOB assessed as enzyme activity recovery level at 4 times IC50 using kynuramine substrate incubated for 15 mins followed by 24 hrs dialysis by fluorescence spectrophotometry; set-up: scale not given: the % may be the effect or the level left; details: 0.25 h
# T4 sequence (P27338 whole entry): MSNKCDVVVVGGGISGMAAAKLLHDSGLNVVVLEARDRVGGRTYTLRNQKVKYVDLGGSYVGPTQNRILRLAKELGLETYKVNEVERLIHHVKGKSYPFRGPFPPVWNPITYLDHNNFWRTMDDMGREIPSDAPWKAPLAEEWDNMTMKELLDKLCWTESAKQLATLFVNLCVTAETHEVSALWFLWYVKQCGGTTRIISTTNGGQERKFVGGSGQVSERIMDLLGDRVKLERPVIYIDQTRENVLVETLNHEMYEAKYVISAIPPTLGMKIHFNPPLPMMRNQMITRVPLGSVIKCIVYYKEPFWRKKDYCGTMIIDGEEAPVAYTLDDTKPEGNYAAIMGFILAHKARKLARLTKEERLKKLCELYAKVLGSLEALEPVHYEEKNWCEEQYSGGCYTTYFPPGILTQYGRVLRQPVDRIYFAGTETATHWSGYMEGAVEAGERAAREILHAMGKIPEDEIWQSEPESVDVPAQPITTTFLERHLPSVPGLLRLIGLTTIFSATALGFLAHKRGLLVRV
# [5] = biological target: T4, Amine oxidase [flavin-containing] B; test: Inhibition of human recombinant MAOB assessed as enzyme activity recovery level at 4 times IC50 using kynuramine substrate incubated for 15 mins followed by without dialysis by fluorescence spectrophotometry; set-up: scale not given: the % may be the effect or the level left; details: 0.25 h
# [6] = biological target: T4, Amine oxidase [flavin-containing] B; test: Time dependent inhibition of human recombinant MAOB at 0.25 to 1.25 uM using kynuramine substrate by fluorescence spectrophotometry based L-B plot analysis
# MAO-A [7] = biological target: T3, MAO-A; test: Inhibition of human recombinant MAOA assessed as enzyme activity recovery level at 4 times IC50 using kynuramine substrate incubated for 15 mins followed by 24 hrs dialysis by fluorescence spectrophotometry; type: toxicity; set-up: scale not given: the % may be the effect or the level left; details: probe kynuramine, read-out: Activity
# [8] = biological target: T4, Amine oxidase [flavin-containing] B; test: Time dependent inhibition of human recombinant MAOB at […] using kynuramine substrate incubated for 5 to 35 mins by fluorescence spectrophotometry; details: TDE = time-dependent effect, time 5-35 min
# MAO-A [9] = biological target: T3, MAO-A; test: Resistance index, ratio of IC50 for toloxatone to IC50 for test compound for inhibition of human recombinant MAOA using kynuramine substrate incubated for 20 mins by fluorescence spectrophotometry; type: toxicity; details: probe kynuramine, read-out: Ratio IC50
# [10] = biological target: T5, Amine oxidase [flavin-containing] A (Homo sapiens, UniProt P21397); test: Inhibition of human recombinant MAOA using kynuramine substrate incubated for 20 mins by fluorescence spectrophotometry; type: toxicity
# T5 sequence (P21397 whole entry): T3 sequence (P21397 whole entry)
# [11] = biological target: T4, Amine oxidase [flavin-containing] B; test: Time dependent inhibition of human recombinant MAOB at 0.25 to 1.25 uM using kynuramine substrate by fluorescence spectrophotometry based graphing of slopes of Lineweaver-Burk plots versus inhibitor concentration
# [12] = biological target: T4, Amine oxidase [flavin-containing] B; test: Inhibition of human recombinant MAOB using kynuramine substrate incubated for 20 mins by fluorescence spectrophotometry
# Homo sapiens = species on record: Homo sapiens; test: Selectivity index, ratio of IC50 for inhibition of human recombinant MAOA to IC50 for human recombinant MAOB
# MAO-A [13] = biological target: T3, MAO-A; test: Inhibition of human recombinant MAOA assessed as enzyme activity recovery level at 4 times IC50 using kynuramine substrate incubated for 15 mins followed by without dialysis by fluorescence spectrophotometry; type: toxicity; set-up: scale not given: the % may be the effect or the level left; details: probe kynuramine, read-out: Activity
smiles,measurement,setting,value
C#CCN(C)C1CCc2ccccc2C1 (racemic) [listing 1 of 2 here],IC50,[1],51 nM
same,IC50,[2],41 nM
"C#CCN(C)C1CCc2ccccc2C1 (single isomer, unassigned; (-)) [listing 1 of 2 here]",IC50,[1],46 nM
same,IC50,[2],88 nM
"C#CCN(C)C1CCc2ccccc2C1 (single isomer, unassigned; (+)) [listing 1 of 2 here]",IC50,[1],140 nM
same,IC50,[2],16 nM
"C#CCN(C)C1CCc2ccccc2C1 (single isomer, unassigned; (-)) [listing 2 of 2 here]",Ratio IC50,Rattus norvegicus,0.5
"C#CCN(C)C1CCc2ccccc2C1 (single isomer, unassigned; (+)) [listing 2 of 2 here]",Ratio IC50,Rattus norvegicus,8.8
C#CCN(C)C1CCc2ccccc2C1 (racemic) [listing 2 of 2 here],Ratio IC50,Rattus norvegicus,1.2
C#CCN(C)Cc1ccccc1 [PARGYLINE],activity at 0.25 h,MAO-A [3],0.9%
C#CCNC1CCc2ccccc2C1 (racemic),Activity,[4],7.5%
same,Activity,[5],0.3%
same,Ki,[6],460 nM
same,activity at 0.25 h,MAO-A [7],102%
same,TDI,[8],Tde
same,selectivity ratio at 20 min,MAO-A [9],5
same,IC50,[10],721 nM
same,Ki,[11],435 nM
same,IC50,[12],14.6 µM
same,Ratio IC50,Homo sapiens,0.05
same,activity at 0.25 h,MAO-A [13],46%
